Structures can show the parent of a compound that is named as a salt.
Tests used:
[1] = test system: human pluripotent stem cell-derived cardiomyocytes (iCell Cardiomyocytes2); assay: Ca2+-fluorescence assay in hSC-derived cardiomyocytes (CTCM human), hazard scoring; assay type: cell-based; set-up: key to Hazard scoring, Color @ 0.1 μM / Hazard scoring, Color @ 0.2 μM / Hazard scoring, Color @ 0.5 μM / Hazard scoring, Color @ 1 μM / Hazard scoring, Color @ 2.5 μM / Hazard scoring, Color @ 5 μM / Hazard scoring, Color @ 0.3 μM / Hazard scoring, Color @ 3 μM / Hazard scoring, Color @ 10 μM: Green: No concern; Yellow: Low concern; Red: High concern; Black: Very high concern due to arrhythmic events
Procedure: 7) Cardio-Electrophysiological Effects of the Testing Compounds in Synchronously Beating Human Pluripotent Stem Cell-Derived Cardiomyocytes (hSC-CMs) Using a Ca^2+-Fluorescence Assay (CTCM human)
Compounds were tested in the 96-well plates.
Compounds were tested at 0.1 μM, 0.2 μM, 0.5 μM, 1 μM, 2.5 μM and 5 μM (n=4 per dose) on Cor.4U®-Cardiomyocytes or on iCell® Cardiomyocytes2.
Alternatively, compounds were tested at 0.1 μM, 0.3 μM; 1 μM, 3 μM, 10 μM and 30 μM (n=4 per dose) mostly on iCell® Cardiomyocytes2.
Vehicle control: Dimethylsulfoxide (DMSO). The solutions of the compound in DMSO or its solvent (final concentration of 0.1% DMSO; n=8).
Tested compounds were dissolved in DMSO at 1000-fold the intended concentrations. A compound “mother-plate” was made, containing the test compounds and positive and negative controls at 1000-fold the final concentrations. At the experiment day, these stock solutions were diluted with Tyrode (Sigma), supplemented with 10 mM HEPES (Gibco), to 2-fold the intended concentration (in round bottom compound plates). Final DMSO concentration in test solutions and vehicle control was 0.1%.
hSC-CMs (Cor.4U® Cardiomyocytes) were obtained from CDI (Ncardia, Germany). Cells are pre-plated and seeded in fibronectin-coated 96-well plates at a density suited to form a monolayer and maintained in culture in a stage incubator (37° C., 5% CO2), according to the instructions of the cell provider.
Second line hSC derived cardiomyocyte called iCell® Cardiomyocytes2 were purchased from FUJIFILM Cellular Dynamics (USA). The experiments with test drugs are carried out 5 to 7 days after plating the cells onto the plate to have a living, beating monolayer of hiPSC-derived cardiomyocytes. The beating monolayer in 96-well-plates are normally taken from 2 Vials of frozen iCell® Cardiomyocytes2 (≈5 million cells/vial), which will be plated onto three 96-well plates (≈50K/well).
At least one hour before the start of the experiments the normal cell medium was replaced with Tyrode solution with Calcium dye (see below).
Cal 520 dye (AAT Bioquest) was dissolved in 11 ml of Tyrode supplemented with 10 mM HEPES and warmed up to 37 C before adding to the cells.
35 μl cell culture medium was removed from each well and replaced with 35 μl of pre-warmed Cal 520 dye solution and cell plate was incubated for 45 min at 37° C./5% CO2. Cells were incubated for 5 min at 37° C.
Spontaneous electrical activity is recorded, using Cal520™ (AAT Bioquest) calcium fluorescence-dye signaling. This dye integrates the total intracellular calcium activity over the whole well. A bottle of Cal520 dye (50 μg, MW: 1103/mol) is dissolved with 50 μl DMSO as a stock solution of 0.9 mM. 50 μL of the stock solution of the dye was added to 10 ml Tryodes solution to have dye concentration of 4.5 μM. Subsequently, 35 μl of this dye solution was added into each well, to have a final dye concentration of 1.58 μM. The current dye protocol on this CTCM human assay was established recently (Ivan Kopljar et al, Journal of Pharmacological and toxicological methods 2018. 91: 80-86; Lu et al., Tox Sci 2019. 170 (2): 345-356).
Fluorescent signals (Ca^2+ transient morphology) were measured using the Functional Drug Screen System (FDSS/pCell; Hamamatsu, Japan) and the recordings were subsequently analyzed off-line, using appropriate software e.g. Notocord.
The cell plate was loaded into the FDSS/pCell for a test run: Ca^2+ transients were measured for 4 minutes to check for synchronous beating of the cardiomyocytes in each well. All 96 wells were measured simultaneously (sampling interval: 0.06 s, short exposure time: 10 ms; excitation wavelength 480 nm; emission wavelength 540 nm; FDSS/pCell warmed to 37° C.).
During the compound addition step, 100 μl of the respective double-concentrated test solutions was pipetted into each well simultaneously.
Data were analyzed off-line using appropriate software e.g. Notocord-Hem (version 4.3). […]

[2] = test system: OCI-AML3 tumors (disseminated, IV); assay: Efficacy study in disseminated OCI-AML3 model (survival); assay type: in vivo, mouse; conditions: vehicle control 38.5 days
Procedure: Doses were adjusted by individual body weight each day.
Female SCID beige mice (CB17.Cg-PrkdcscidLystbg-J/Crl/−) were used when they were approximately 6 to 8 weeks of age and weighed approximately 25 g. All animals could acclimate and recover from any shipping-related stress for a minimum of 7 days prior to experimental use. Autoclaved water and irradiated food were provided ad libitum, and the animals were maintained on a 12 hour light and dark cycle. Cages, bedding, and water bottles were autoclaved before use and changed weekly. The tissue culture and cell injection reagents are summarized below in Table 14.
Human AML cell line OCI-AML3 was cultured at 37° C., 5% CO2 in the indicated complete culture media (MEM Alpha+20% HI—FBS (Heat-Inactivated Fetal Bovine Serum)+2 mM L-glutamine+50 ug/ml Gentamycin). […]
Animals were monitored daily for clinical signs related to either compound toxicity or tumor burden (i.e., hind limb paralysis, lethargy, etc.).
Median survival was determined utilizing Kaplan-Meier survival analysis. […]
Statistical significance for body weights was evaluated as described above. Statistical significance was evaluated for Kaplan-Meier survival plots comparing therapeutic treatment group vs. appropriate vehicle-treated control using log-rank (Mantel-Cox) test in R software version 3.4.2. […]

[3] = Stability experiments under stress conditions (UHPLC purity, XRD); assay type: physicochemical; conditions: for XRD after stress: Reference Crystalline, form A
KO-52 cells = assay: Proliferation assay (spheroid, day 8 confluence), KO-52 control cell line; assay type: cell-based; conditions: Homo sapiens; 8 days; read-out: spheroid assay_OneTime KO-52 IC50
Procedure: The anti-proliferative effect of menin/MLL protein/protein interaction inhibitor test compounds was assessed in human leukemia cell lines. The cell line MOLM-14 harbors a MLL translocation and expresses the MLL fusion protein MLL-AF9, respectively, as well as the wildtype protein from the second allele. OCI-AML3 cells that carry the NPM1c gene mutation were also tested. […] KO-52 was used as a control cell line containing two MLL (KMT2A) wildtype alleles in order to exclude compounds that display general cytotoxic effects.
KO-52 and OCI-AML3 cell lines were propagated in alpha-MEM (Sigma Aldrich) supplemented with 20% heat-inactivated fetal bovine serum (HyClone), 2 mM L-glutamine (Sigma Aldrich) and 50 μg/ml gentamycin (Gibco).
In order to assess the anti-proliferative effects, 200 MOLM-14 cells, 200 OCI-AML3 cells or 300 KO-52 cells were seeded in 200 μl media per well in 96-well round bottom, ultra-low attachment plates (Costar, catalogue number 7007). […] Spheroid like growth was measured in real-time by live-cell imaging (IncuCyteZOOM, Essenbio, 4× objective) acquiring images at day 8. Confluence (%) as a measure of spheroid size was determined using an integrated analysis tool.
In order to determine the effect of the test compounds over time, the confluence in each well as a measure of spheroid size, was calculated. […]

MOLM-14 cells = assay: Proliferation assay (spheroid, day 8 confluence), MOLM-14; assay type: cell-based; conditions: Homo sapiens, 8 days, read-out: spheroid assay_OneTime MOLM-14 IC50
[4] = iCell Cardiomyocytes2, 30 min incubation
[5] = efficacious dose in mouse xenograft models of 30 mpk, (mouse, human)

## CCN(C(=O)c1cc(F)ccc1Oc1nncnc1N1CCC2(C1)CN([C@H](CCCN(C)CCOC)C(C)C)C2)C(C)C [Compound A3, (R)—N-ethyl-5-fluoro-N-isopropyl-2-((5-(2-(6-((2-methoxyethyl) (methyl)amino)-2-methylhexan-3-yl)-2,6-diazaspiro[3.4]octan-6-yl)-1,2,4-triazin-6-yl)oxy) benzamide oxalate]
[1]; [4]
  Hazard scoring, Color @ 0.1 μM: Green
  Hazard scoring, Color @ 1 μM: Green
[1]; 0.2 μM, iCell Cardiomyocytes2, 30 min incubation
  Hazard scoring, Color @ 0.2 μM: Green
[1]; 0.5 μM, iCell Cardiomyocytes2, 30 min incubation
  Hazard scoring, Color @ 0.5 μM: Green
[1]; 2.5 μM, iCell Cardiomyocytes2, 30 min incubation
  Hazard scoring, Color @ 2.5 μM: Green
[1]; 5 μM, iCell Cardiomyocytes2, 30 min incubation
  Hazard scoring, Color @ 5 μM: Green
[2]; 30 mg/kg PO daily for 28 days
  median days of survival: 75.5 days
[2]; 50 mg/kg PO daily for 28 days
  median days of survival: 58.5 days

## CCN(C(=O)c1cc(F)ccc1Oc1nncnc1N1CCC2(C1)CN([C@H](CCCN(C)CCOC)C(C)C)C2)C(C)C [Compound A1, (R)—N-ethyl-5-fluoro-N-isopropyl-2-((5-(2-(6-((2-methoxyethyl)(methyl)-amino)-2-methylhexan-3-yl)-2,6-diazaspiro[3.4]octan-6-yl)-1,2,4-triazin-6-yl)oxy)-benzanilide 0.2 HCl·x H2O (x=2-3)]
[1]; [4]
  Hazard scoring, Color @ 0.1 μM: Green
  Hazard scoring, Color @ 1 μM: Green
[1]; 0.3 μM, iCell Cardiomyocytes2, 30 min incubation
  Hazard scoring, Color @ 0.3 μM: Green
[1]; 3 μM, iCell Cardiomyocytes2, 30 min incubation
  Hazard scoring, Color @ 3 μM: Green
[1]; 10 μM, iCell Cardiomyocytes2, 30 min incubation
  Hazard scoring, Color @ 10 μM: Green
[1]; 30 μM, iCell Cardiomyocytes2, 30 min incubation
  Hazard scoring, Color @ 30 μM: yellow
[1]; [5]
  Margin CTCM human 10 μM vs free Cmax: > 16
  Margin CTCM human 30 μM vs free Cmax: > 45

## CCN(C(=O)c1cc(F)ccc1Oc1nncnc1N1CCC2(C1)CN([C@H](CCCN(C)CCOC)C(C)C)C2)C(C)C [Compound A4, (R)—N-ethyl-5-fluoro-N-isopropyl-2-((5-(2-(6-((2-methoxyethyl)(methyl)amino)-2-methylhexan-3-yl)-2,6-diazaspiro[3.4]octan-6-yl)-1,2,4-triazin-6-yl)oxy)benzamide bis-besylate salt hydrate]
[3]; 50° C./10% RH, 7 days, Reference 99.65
  Besylate salt Purity after stress: 99.64
[3]; 50° C./10% RH, 14 days, Reference 99.65
  Besylate salt Purity after stress: 99.62
[3]; 50° C./30% RH, 21 days, Reference 99.21
  Besylate salt Purity after stress: 99.32
[3]; 50° C./30% RH, 21 days
  XRD after stress: Complies to ref
[3]; 50° C./50% RH, 7 days, Reference 99.65
  Besylate salt Purity after stress: 99.65
[3]; 50° C./50% RH, 14 days, Reference 99.65
  Besylate salt Purity after stress: 99.66
[3]; 50° C./75% RH, 21 days, Reference 99.21
  Besylate salt Purity after stress: 99.36
[3]; 50° C./75% RH, 21 days
  XRD after stress: Complies to ref
[3]; under evaluated stress conditions
  chemical and physical stability (UHPLC, XRD): chemically and physically stable
KO-52 cells
  IC50: 5440 nM
MOLM-14 cells
  IC50: 8 nM

Source: US20260125387A1, “(R)-N-ETHYL-5-FLUORO-N-ISOPROPYL-2-((5-(2-(6-((2-METHOXYETHYL)(METHYL)AMINO)-2-METHYLHEXAN-3-YL)-2,6-DIAZASPIRO[3.4]OCTAN-6-YL)-1,2,4-TRIAZIN-6-YL)OXY)BENZAMIDE BESYLATE SALT” (Janssen Pharmaceutica NV, priority 2021, published 2026)
